Test results taken from patent US7625841B2, “Substituted thiene-3-ylsulphonylamino(thio)carbonyltriazolin(ethi)ones” (Bayer CropScience AG, priority 2001, dated 2009).

How the values were obtained:
Assay type in all cases: in vivo
Alopecurus [1] = assay: Post-emergence test/greenhouse; details: greenhouse, application rate 15 gai/ha, rated after three weeks, 0%=no effect, 100%=total destruction
Procedure: (§1) • Solvent: 5 parts by weight of acetone • Emulsifier: 1 part by weight of alkylaryl polyglycol ether
(§2) To produce a suitable preparation of active compound, 1 part by weight of active compound is mixed with the stated amount of solvent, the stated amount of emulsifier is added and the concentrate is diluted with water to the desired concentration.
(§3) Test plants of a height of 5-15 cm are sprayed with the preparation of active compound such that the particular amounts of active compound desired are applied per unit area. The concentration of the spray liquor is chosen such that the particular amounts of active compound desired are applied in 1000 l of water/ha.
(§4) After three weeks, the degree of damage to the plants is rated in % damage in comparison to the development of the untreated control.
(§5) The figures denote: • 0%=no effect (like untreated control) • 100%=total destruction

Avena fatua [2] = assay: Post-emergence test/greenhouse; details: greenhouse, application rate 15 gai/ha, rated after three weeks, 0%=no effect, 100%=total destruction
Procedure: as §1, §2, §3, §4, §5

Bromus [3] = assay: Post-emergence test/greenhouse; details: greenhouse, application rate 15 gai/ha, rated after three weeks, 0%=no effect, 100%=total destruction
Procedure: as §1, §2, §3, §4, §5

Digitaria [4] = assay: Post-emergence test/greenhouse; details: greenhouse, application rate 15 gai/ha, rated after three weeks, 0%=no effect, 100%=total destruction
Procedure: as §1, §2, §3, §4, §5

Echinochloa = assay: Post-emergence test/greenhouse; details: greenhouse, application rate 15 gai/ha, rated after three weeks, 0%=no effect, 100%=total destruction
Procedure: as §1, §2, §3, §4, §5

Lolium [5] = assay: Post-emergence test/greenhouse; details: greenhouse, application rate 15 gai/ha, rated after three weeks, 0%=no effect, 100%=total destruction
Procedure: as §1, §2, §3, §4, §5

Setaria [6] = assay: Post-emergence test/greenhouse; details: greenhouse, application rate 15 gai/ha, rated after three weeks, 0%=no effect, 100%=total destruction
Procedure: as §1, §2, §3, §4, §5

Alopecurus [7] = assay: Pre-emergence test/greenhouse; details: greenhouse, application rate 15 gai/ha, rated after three weeks, 0%=no effect, 100%=total destruction
Procedure: as §1
(§6) To produce a suitable preparation of active compound, 1 part by weight of active compound is mixed with the stated amount of solvent, the stated amount of emulsifier is added and the concetrate is diluted with water to the desired concentration.
(§7) Seeds of the test plants are sown in normal soil. After 24 hours, the soil is sprayed with the preparation of active compound such that the particular amount of active compound desired is applied per unit area. The concentration of active compound in the spray liquor is chosen such that the particular amount of active compound desired is applied in 1000 litres of water per hectare.
(§8) After three weeks, the degree of damage to the plants is rated in % damage in comparison to the development of the untreated control. The figures denote: • 0%=no effect (like untreated control) • 100%=total destruction

Bromus [8] = assay: Pre-emergence test/greenhouse; details: greenhouse, application rate 15 gai/ha, rated after three weeks, 0%=no effect, 100%=total destruction
Procedure: as §1, §6, §7, §8

Lolium [9] = assay: Pre-emergence test/greenhouse; details: greenhouse, application rate 15 gai/ha, rated after three weeks, 0%=no effect, 100%=total destruction
Procedure: as §1, §6, §7, §8

Polygonum = assay: Pre-emergence test/greenhouse; details: greenhouse, application rate 15 gai/ha, rated after three weeks, 0%=no effect, 100%=total destruction
Procedure: as §1, §6, §7, §8

Solanum = assay: Pre-emergence test/greenhouse; details: greenhouse, application rate 15 gai/ha, rated after three weeks, 0%=no effect, 100%=total destruction
Procedure: as §1, §6, §7, §8

Stellaria = assay: Pre-emergence test/greenhouse; details: greenhouse, application rate 15 gai/ha, rated after three weeks, 0%=no effect, 100%=total destruction
Procedure: as §1, §6, §7, §8

Xanthium = assay: Pre-emergence test/greenhouse; details: greenhouse, application rate 15 gai/ha, rated after three weeks, 0%=no effect, 100%=total destruction
Procedure: as §1, §6, §7, §8

maize = assay: Pre-emergence test/greenhouse; details: greenhouse, application rate 15 gai/ha, rated after three weeks, 0%=no effect, 100%=total destruction
Procedure: as §1, §6, §7, §8

wheat = assay: Pre-emergence test/greenhouse; details: greenhouse, application rate 15 gai/ha, rated after three weeks, 0%=no effect, 100%=total destruction
Procedure: as §1, §6, §7, §8

weeds [10] = assay: Post-emergence test, summary for weeds
Procedure: as §1, §2, §3, §4, §5

[11] = test system: crop plants such as, for example, maize, oilseed rape and wheat; assay: Post-emergence test, summary for crop plants
Procedure: as §1, §2, §3, §4, §5

weeds [12] = assay: Pre-emergence test, summary for weeds
Procedure: as §1, §6, §7, §8

[13] = test system: crop plants, such as, for example, maize, soyabean and wheat; assay: Pre-emergence test, summary for crop plants
Procedure: as §1, §6, §7, §8

Amaranthus = assay: Pre-emergence test/greenhouse; details: greenhouse, application rate 15 gai/ha, rated after three weeks, 0%=no effect, 100%=total destruction
Procedure: as §1, §6, §7, §8

Chenopodium = assay: Pre-emergence test/greenhouse; details: greenhouse, application rate 15 gai/ha, rated after three weeks, 0%=no effect, 100%=total destruction
Procedure: as §1, §6, §7, §8

Setaria [14] = assay: Pre-emergence test/greenhouse; details: greenhouse, application rate 15 gai/ha, rated after three weeks, 0%=no effect, 100%=total destruction
Procedure: as §1, §6, §7, §8

soybeans = assay: Pre-emergence test/greenhouse; details: greenhouse, application rate 15 gai/ha, rated after three weeks, 0%=no effect, 100%=total destruction
Procedure: as §1, §6, §7, §8

Digitaria [15] = assay: Pre-emergence test/greenhouse; details: greenhouse, application rate 15 gai/ha, rated after three weeks, 0%=no effect, 100%=total destruction
Procedure: as §1, §6, §7, §8

Matricaria = assay: Pre-emergence test/greenhouse; details: greenhouse, application rate 15 gai/ha, rated after three weeks, 0%=no effect, 100%=total destruction
Procedure: as §1, §6, §7, §8

Avena fatua [16] = assay: Pre-emergence test/greenhouse; details: greenhouse, application rate 15 gai/ha, rated after three weeks, 0%=no effect, 100%=total destruction
Procedure: as §1, §6, §7, §8

Row | Compound | degree of damage to the plants, Avena fatua (Avena fatua [2]) [%] | degree of damage to the plants, Bromus (Bromus [3]) [%] | degree of damage to the plants, Digitaria (Digitaria [4]) [%] | degree of damage to the plants, Echinochloa (Echinochloa) [%] | degree of damage to the plants, Lolium (Lolium [5]) [%] | degree of damage to the plants, Setaria (Setaria [6]) [%] | degree of damage to the plants, Alopecurus (Alopecurus [7]) [%] | degree of damage to the plants, Lolium (Lolium [9]) [%] | degree of damage to the plants, Polygonum (Polygonum) [%] | degree of damage to the plants, Solanum (Solanum) [%] | degree of damage to the plants, Stellaria (Stellaria) [%] | degree of damage to the plants, maize (maize) [%] | degree of damage to the plants, wheat (wheat) [%] | activity against weeds compared with the known compounds (A) and (B) (weeds [10]) | compatibility with crop plants compared with the known compounds (A) and (B) [11] | activity against weeds compared with the known compounds (A) to (G) (weeds [12]) | tolerance by crop plants [13] | degree of damage to the plants, Amaranthus (Amaranthus) [%] | degree of damage to the plants, Setaria (Setaria [14]) [%] | degree of damage to the plants, Matricaria (Matricaria) [%] | other results
1 | CCCc1nn(C(=O)NS(=O)(=O)c2c(C(=O)OC)csc2C)c(=O)n1C [Example 15] | 90 | 80 | 100 | 90 | 80 | 90 | 100 | 95 | 90 | 95 | 100 | 0 | 0 | considerably stronger activity against weeds | substantially better compatibility with crop plants | considerably stronger activity against weeds | tolerated well by crop plants | – | – | – | degree of damage to the plants, Alopecurus (Alopecurus [1]): 95%; degree of damage to the plants, Bromus (Bromus [8]): 90%; degree of damage to the plants, Xanthium (Xanthium): 95%
2 | CCOc1nn(C(=O)NS(=O)(=O)c2c(C(=O)OC)csc2C)c(=O)n1CC [Example 38] | – | – | – | – | – | – | – | 80 | – | 100 | 100 | 0 | – | – | – | considerably stronger activity against weeds | tolerated well by crop plants | 100 | 95 | – | degree of damage to the plants, Chenopodium (Chenopodium): 95%; degree of damage to the plants, soybeans (soybeans): 0%
3 | CCOn1c(CC)nn(C(=O)NS(=O)(=O)c2c(C(=O)OC)csc2C)c1=O [Example 39] | 90 | 95 | 95 | 100 | 95 | 95 | – | 95 | – | 95 | 100 | – | 0 | considerably stronger activity against weeds | substantially better compatibility with crop plants | considerably stronger activity against weeds | tolerated well by crop plants | 100 | 100 | – | degree of damage to the plants, Digitaria (Digitaria [15]): 100%
4 | COC(=O)c1csc(C)c1S(=O)(=O)NC(=O)n1nc(OCC(F)(F)F)n(C)c1=O [Example 41] | – | – | – | – | – | – | 100 | – | – | 100 | 100 | 0 | 0 | – | – | considerably stronger activity against weeds | tolerated well by crop plants | 100 | 95 | – | degree of damage to the plants, Chenopodium (Chenopodium): 100%
5 | COC(=O)c1csc(C)c1S(=O)(=O)NC(=O)n1nc(OCC(F)(F)F)n(C2CC2)c1=O [Example 43] | – | – | – | – | – | – | – | 95 | 100 | – | 100 | – | – | – | – | considerably stronger activity against weeds | tolerated well by crop plants | 100 | 95 | 100 | –
6 | COCc1nn(C(=O)NS(=O)(=O)c2c(C(=O)OC)csc2C)c(=O)n1C1CC1 [Example 45] | 90 | 90 | 100 | 100 | 95 | 90 | – | 100 | 95 | – | 100 | – | – | considerably stronger activity against weeds | substantially better compatibility with crop plants | considerably stronger activity against weeds | tolerated well by crop plants | 100 | 100 | 100 | degree of damage to the plants, Avena fatua (Avena fatua [16]): 95%
7 | COC(=O)c1csc(C)c1S(=O)(=O)NC(=O)n1nc(C)n(C2CC2)c1=O [Example 46] | 80 | – | 90 | – | 95 | – | 95 | 90 | – | – | 100 | 0 | 50 | considerably stronger activity against weeds | substantially better compatibility with crop plants | considerably stronger activity against weeds | tolerated well by crop plants | – | – | 100 | degree of damage to the plants, Alopecurus (Alopecurus [1]): 80%; degree of damage to the plants, soybeans (soybeans): 0%
